Results taken from patent US5814610A, “Osteogenic growth oligopeptides and pharmaceutical compositions containing them” (Yissum Research Development Company of the Hebrew …, priority 1993, dated 1998).
No end group written: not given here.

What was measured:
NIH 3T3 fibroblasts = experiment: Proliferative activity: fibroblastic NIH 3T3 cell number in vitro; type: cell-based; details: NIH 3T3 cells
[1] = system: osteoblastic MC3T3E1 cells; experiment: Proliferative activity: osteoblastic MC3T3E1 cell number in vitro; type: cell-based; details: for Proliferative effect on cell number (magnitude, compared with positive sOGP control): MC3T3E1 cells
[2] = Kharchenko et al.; cited from earlier work

Substance	Proliferative effect on cell number (magnitude, compared with positive sOGP control) (NIH 3T3 fibroblasts)	Peptide concentration of peak proliferative activity ([1]; MC3T3E1 cell number)	Proliferative effect on cell number (magnitude, compared with positive sOGP control) [1]	Proliferative activity, Percent Activity of Full Length Peptide [OGP(1-14)], Mean (NIH 3T3 fibroblasts; mean of experiments) [%]	Proliferative activity, Percent Activity of Full Length Peptide [OGP(1-14)], Mean ([1]; MC3T3 E1 cells, mean of experiments) [%]	Analgesic and opioid activity [2]
Ac-MYGFGG [Ac-Met^0 [OGP(10-14)], Ac--Met--Tyr--Gly--Phe--Gly--Gly]	closely similar to that of positive sOGP controls	10^-13 M	closely similar to that of positive sOGP controls			
Gly--Gly [OGP(13-14)]	did not affect		did not affect	0	0	
Tyr--Gly--Phe--Gly--Gly (YGFGG; printed: Tyr--Gly--Phe--Gly--Gly) [OGP(10-14)]						analgesic and opiod activity
